“Also recorded” adds a separate entry of the source.
Columns and labels:
[1] = system: human hair follicle dermal papilla cells; test: MTT cell proliferation / survival rate in human hair follicle dermal papilla cells; assay type: cell-based; conditions: 24 h
Protocol: (§1) All of the tests were performed after obtaining approval of Ethics Commission of Medical College, Kyungpook National University. As samples of hairs, hairs in intact state were collected from scalps in the backs of the heads of male hair transplant patients. All of the hair samples were used with the consent of hair transplant patient who provides the samples. The area of subcutaneous fat of scalp including a hair follicle was isolated from the hair sample, and then the hair follicle was isolated by using a binocular microscope. In order to obtain hair papilla cells, the hair papilla was isolated from the hair follicle, and then shifted to a dish that was coated with bovine type I collagen. Then, the hair papilla in the dish was cultured (in an incubator at 37° C. and 5% CO2) in a DEME (Gibco BRL, Gaithersburg. Md., USA) medium including 20% heat inactivated fetal bovine serum including penicillin (100 U/mL) and streptomycin ([…]). […]
(§2) It was investigated whether or not the hydroxydihydrobovolide compound according to the present invention has an effect on cell proliferation in hair follicle cells and cells in the outer root sheath, in which the cells were closely associated with hair growth. […] After 30 minutes, absorbance of the cells was measured (570 nm).

[2] = system: hair outer root sheath cells; test: MTT cell proliferation / survival rate in hair outer root sheath cells; assay type: cell-based, human; conditions: 24 h
Protocol: as §1, §2

human hair tissues = test: Evaluation of hair growth using human hair tissue culture; assay type: cell-based; conditions: 5 μM
Protocol: The human hair tissues were supplied from an immunology laboratory in Kyungpook National University. The human hair tissues were cultured in an incubator at 37° C. and CO2 by using Williams E media (Sigma, USA) including 2 mM L-glutamin, 100 U/mL of streptomycin, and 10 ng/ml of hydrocortisone. The test materials with various concentrations were cultured for 6 days, and the lengths of hairs were measured on the third days and sixth day.

Q: `CCCCCC1(O)OC(=O)C(C)=C1C` (stereo not drawn) [hydroxydihydrobovolide, 5-hydroxy-3,4-dimethyl-5-pentylfuran-2(5H)-one] was tested. Which “cell proliferation increased by” value ([1]; 0.05 μM, vs untreated control group, p<0.05) did it give?
A: 144%

Q: What about the “effect on cell proliferation compared with control group” value ([1]; 0.005 to 0.5 μM) of the same compound?
A: significant cell proliferation effect; also recorded: significant effects on cell proliferation

Q: What about the “cell proliferation increased by” value ([2]; 0.5 μM, vs control group, highest effect) of the same compound?
A: 156%

Q: What about the “cell proliferation compared with control group” value ([2]; 0.005 to 0.5 μM) of the same compound?
A: significantly higher cell proliferation rate than the control group; also recorded: significantly higher than that of the control group

Q: And the “length of hair on the third day” value (human hair tissues; day 3 of culture)?
A: 0.62 mm

Q: And the “length of hair on the sixth day” value (human hair tissues; day 6 of culture)?
A: 1.38 mm
